Values quoted from earlier work in patent US11267839B2, “Crystalline forms of LNT” (GLYCOM A/S, priority 2015, dated 2022).

Conditions: prior-art crystalline LNT from aqueous ethanol, after drying

weight taken back when stored in air (hygroscopic): around 8 % of its weight
SMILES: CC(=O)N[C@H]1[C@H](O[C@H]2[C@@H](O)[C@@H](CO)O[C@@H](O[C@H]3[C@H](O)[C@@H](O)C(O)O[C@@H]3CO)[C@@H]2O)O[C@H](CO)[C@@H](O)[C@@H]1O[C@@H]1O[C@H](CO)[C@H](O)[C@H](O)[C@H]1O (stereo partly shown) [LNT, Galpβ1-3GlcNAcpβ1-3Galpβ1-4Glc]
